What all share (experiment): standard MIC test, synergist in combination with amoxycillin
Assay type in all cases: cell-based
Details in all cases: substance alone, unit assumed

One test relates to E.coli JT39. Here is the method: (§1) In a standard MIC test the compound of Example 2 was tested as a synergist in combination with amoxycillin: […]
The next test relates to Staph Aureus Russell. The method, then:
as §1

The next test concerns Klebsiella Aerogenes E70. The method, then:
as §1

Molecules are shown by their SMILES.

For the compound `CC1(C)S[C@@H]2[C@H](NC(=O)[C@H](N)c3ccc(O)cc3)C(=O)N2[C@H]1C(=O)O` [Amoxycillin], the MIC with E.coli JT39 was 2000 µg/mL; in the test on Staph Aureus Russell, 500 µg/mL; in the test on Klebsiella Aerogenes E70, 500 µg/mL.
`COC(OC)OC/C=C1\O[C@@H]2CC(=O)N2[C@H]1C(=O)O` [Ex. 2, Lithium 9-O-(dimethoxymethyl)clavulanate]: the values for the minimum inhibitory concentration (MIC) in the test on E.coli JT39, in the test on Staph Aureus Russell and in the test on Klebsiella Aerogenes E70 were 31 µg/mL, 62 µg/mL and 62 µg/mL, respectively.

What is called MIC is the lowest concentration that inhibits growth of the organism.

(Values after patent EP0080284A1, “Derivatives of clavulanic acid, processes for their preparation and their use” (BEECHAM GROUP PLC, priority 1981, dated 1983).)
